In patent US20260306460A1, “COMPOSITION FOR REMOVING AND INHIBITING SENESCENT CELLS, AND USES THEREOF” (LIFECEUTIX CO., LTD., priority 2023, published 2026):

Legend:
[1] = test system: HMGN1 secreted from senescent A549 cells; experiment: HMGN1 secretion (ELISA) from senescent A549 cancer cells, Example 12; format: cell-based, human; settings: senescent untreated = 100%; 30 μM; 90 μM for LX-305, 905, 1302, 1601, 1603, 2003, 2702, 2901, 3106; 270 μM for LX-1103, 2005, 2007;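 further: A549 cells made senescent by doxorubicin exposure, with DMSO-treated cells serving as the non-senescent control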
[2] = test system: senescent A549 cells; experiment: Viability of senescent A549 cancer cells (CellTiter-Glo), Example 12; format: cell-based, human; settings: Homo sapiens, A549, 0 μM = 100, read-out: Survival
[3] = test system: naturally aged mice; experiment: Anti-aging evaluation in naturally aged mice, Example 31, Table 55; format: in vivo, mouse; settings: for Femur Ctsk mRNA / Kidney Agtr1a mRNA / Liver IL6 mRNA / Liver MMP3 mRNA / Liver p16 mRNA / Open Field Test Time in Center: untreated = 100%; for Heart Sur2a mRNA / Joint Col2a1 mRNA / Skin Col1a1 mRNA / Skin SDF1 mRNA: untreated = 1.0; for Muscle Mass: untreated 0.64 g; for Fat Mass: untreated 0.82 g; for Cataract incidence: untreated 83%;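 on all read-outs here: Vehicle-dosed control mice received solution alone at matching volume, values compare test-compound-treated aged mice against that control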
[4] = test system: senescent human cells; experiment: Viability of doxorubicin-induced senescent human cells (CellTiter-Glo), Example 11; format: cell-based; settings: Homo sapiens, 0 μM = 100, read-out: Survival; for viability at […]: 3.3 μM
[5] = test system: bleomycin-induced pulmonary fibrosis mice; experiment: Bleomycin-induced pulmonary fibrosis mice, Example 31, Table 56; format: in vivo, mouse; settings: untreated = 100%
Procedure, shortened: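 Mice with bleomycin-induced pulmonary fibrosis, untreated or given test compound, with vehicle-only controls. Lung tissue collected for RNA extraction and qRT-PCR analysis.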

[6] = test system: carbon tetrachloride-induced liver fibrosis mice; experiment: Carbon tetrachloride-induced liver fibrosis mice, Example 31, Table 57; format: in vivo, mouse; settings: CCl4-induced liver fibrosis mice, untreated = 100%
Procedure, shortened: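 Mice with induced hepatic fibrosis received either the test compound or, as controls, an equal volume of vehicle solution alone. Once dosing ended, liver tissue was harvested and total RNA was isolated. cDNA was synthesized from this RNA, and quantitative RT-PCR was run on it to measure hepatic mRNA levels of the fibrosis- and senescence-related genes.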

[7] = test system: senescent foreskin cells; experiment: Survival of senescent human cells treated with supernatant (secreted fluid) from death-induced cells, Example 13; format: cell-based; settings: Table 8; supernatant from dying senescent cells treated at 30, 90 or 270 μM (as Example 11); senescent treated cells

SMILES | HMGN1 [1] [%] | Femur Ctsk mRNA [3] [%] | Heart Sur2a mRNA [3] [fold] | Joint Col2a1 mRNA [3] [fold] | Kidney Agtr1a mRNA [3] [%] | Liver IL6 mRNA [3] [%] | Liver MMP3 mRNA [3] [%] | Liver p16 mRNA [3] [%] | Open Field Test Time in Center [3] [%] | Skin Col1a1 mRNA [3] [Fold] | Skin SDF1 mRNA [3] [fold] | Muscle Mass [3] [g] | Fat Mass [3] [g] | Cataract incidence [3] [%] | viability at […] [4] [%] | Lung p16 mRNA [5] | Col1a1 mRNA [5] | Liver p16 mRNA [6] | Col1a1 mRNA [6] | Survival [7] | other results
Cc1nnc(-c2cc(C(=O)N3CCC(c4ccc(C#N)cc4)CC3)c(C)cc2C2CCC2)[nH]1 [LX-305] | 227 | 73 | 1.8 | 2.6 | 73 | 61 | 78 | 69 | 157 | 1.7 | 1.9 | 0.66 | 0.91 | 75 | 97.2 | 62 (±3.5) % | 73 (±4.1) % | 64 (±2.3) % | 70 (±3.2) % | 89.5 | viability at 1.1 µM ([2]; 1.1 μM): 99.2%; viability at […] ([2]; 3.3 μM): 93.8%; viability at 10 µM ([2]; 10 μM): 63.1%; viability at 30 µM ([2]; 30 μM): 41%; viability at 90 µM ([2]; 90 μM): 13.3%; viability at 1.1 µM ([4]; 1.1 μM): 101%; viability at 10 µM ([4]; 10 μM): 91%; viability at 30 µM ([4]; 30 μM): 78%; viability at 90 µM ([4]; 90 μM): 23.2%
CC/C=C\C/C=C\C/C=C\C/C=C\C/C=C\C/C=C\CCC(=O)O [LX-2702, Docosahexaenoic acid] | 237 | 50 | 2.3 | 2.8 | 57 | 54 | 73 | 80 | 211 | 1.8 | 2.7 | 0.72 | 1.13 | 66 | – | 53 (±2.8) % | 43 (±5.9) % | 46 (±3.2) % | 53 (±6.1) % | 68.6 | –
CCN(CC)C(=S)SSC(=S)N(CC)CC [LX-1601, Disulfiram] | 257 | 40 | 2.6 | 2.0 | 66 | 43 | 39 | 62 | 228 | 1.8 | 2.1 | 0.74 | 1.20 | 62 | 90 | 52 (±3.7) % | 63 (±4.6) % | 48 (±4.0) % | 50 (±2.0) % | 81.4 | –
O=C(NCc1ccncc1)C12CC3CC(C1)CC(c1ccc(Cl)cc1)(C3)C2 [LX-3106, Opaganib] | 236 | 76 | 1.6 | 2.0 | 83 | 71 | 85 | 76 | 193 | 1.3 | 1.3 | 0.72 | 0.88 | 71 | – | 67 (±4.3) % | 77 (±3.7) % | 81 (±6.5) % | 71 (±5.4) % | 72.6 | –
